According to patent publication US20070099822A1, “Regulation of tissue mineralization and phosphate metabolism by asarm peptides” (priority 2003, published 2007):
Several values for one entry are separate records, joined by “and”; a condition that tells them apart may be missing. Identical values can stand only once. Entries after “also recorded” stand apart in the source; their conditions may differ.

Assays:
[1] = test system: male ICR Swiss mice; test: Example VI: subcutaneous PO4-ASARM-peptide or etidronate, calcein fluorescence and Sanderson osteoid staining; assay type: in vivo
Method: Subcutaneous administration of PO4-ASARM-peptide, etidronate (EHDP), and calcein. Three separate groups of male ICR Swiss mice (4-5 weeks) were subcutaneously injected once a day (9:00AM), for 12 days except for days 6 and 7 with 50 μL solutions of either (1) Eitidronate (EHDP) (10 mg/kg/day); (2) PO4-ASARM-peptide (2 mg/kg/day); or (3) vehicle consisting of 5 mM HEPES pH 7.4/150 mM NaCL/0.1% BSA. The synthetic PO4-ASARM-peptide was dissolved in vehicle (1.0 mg/mL). Etidronate was first dissolved in 150 mM NaCl and then buffered to pH 7.5 with 1M NaOH to give a 5 mg/mL solution. The 10 mg/kg/day doses of etidronate have previously been reported to inhibit mineralization in rats and were used as positive controls (Trechsel, et al., Am J Physiol 232(3):E298-305, 1977; Bonjour, et al., Am J Physiol 229(2):402-8, 1975). All three groups were subcutaneously injected with calcein (20 mg/kg/day) on days 3, 5, […]. The degree of calcein fluorescence and/or fluorescence-quenching is an indicator of mineralization status (see next section). The calcein injections when given were administered 1 h after the daily injections of PO4-ASARM-peptide, EHDP or vehicle. Animals were then terminated humanely and calvariae plus femurs/tibia were fixed in 70% ethanol (non-decalcified). After fluorescence imaging (see FIG. 35) calvariae were processed in plastic and stained with Sanderson's stain (see below). Five animals per group were used for statistical analysis of fluorescence quenching and histological Sanderson staining.
Calcein fluorescence in mice calvariae, hind-limbs & fluor-imager analysis of mineralization. A Bio-Rad (Hercules, Calif.) FluorImager^max fluorescent imager was used to simultaneously image all the samples from each of the 3 groups (15 animals; five animals per group). This consisted of 10 tibia/femurs and 5 calvariae per group. Samples were placed on top of the FluorImager plate contained within a light-tight box. Ultra-violet light was used to generate calcein-mediated epi-fluorescence and the fluorescent-image was captured on a −40° C., peltier-cooled, 1,340×1040 pixel CCD resolution, CCD digital-camera. Quantitation of fluorescence was carried out using Quantity-1 (Bio-Rad, Hercules, Calif.) fluorescence-software. Pixel saturation was prevented by internal software calibration and exposure adjustment. All fluorescence readings were thus accurately quantitative and non-saturating. Photo-micrographic UV fluorescent analysis of calvarial cross sections embedded in plastic and mounted as slides (<100 micrometer sections) was also undertaken and a description of the fixation and processing is given in the next section.
Sanderson-staining and fluorescence detection of calvarial osteoid & mineralized bone. Staining of non-decalcified calvarial sections was performed using the method described by Sanderson and Bachus (Staining technique to differentiate mineralized and demineralized bone in ground sections, J Histotechnol 20(2): 119-122, 1997). This technique provides differential staining between unmineralized osteoid and mineralized bone. Prior to staining, calvariae were dissected and attached tissue removed. Calvariae were then placed in 70% ethanol for further fixation as described by Sanderson and Bachus (supra). After fixing and processing undecalcified calvariae were embedded in plastic (LR-white acrylic resin (London Resin Co., Reading, England)) as previously described (Garrett, et al., Selective inhibitors of the osteoblast proteasome stimulate bone formation in vivo and in vitro, J Clin Invest 111(11):1771-1782, 2003). Plastic embedded sections were ground to <100 micrometers using a specialized grinding-pestle as described by Donath and Breuner (A method for the study of undecalcified bones and teeth with attached soft tissues. The Sage-Schliff (sawing and grinding) technique, J Oral Pathol 11(4):318-26, 1982). […]

[2] = test system: mice; test: Example II: subcutaneous injection twice a day for three weeks, serum and urine; assay type: in vivo; conditions: for serum phosphate: three weeks, vehicle 9.62; for serum calcium vs vehicle / serum alkaline phosphatase vs vehicle: etidronate 60 mg/kg/day; for serum alkaline phosphatase vs vehicle: ASARM 1.3 and 4 mg/kg/day (both groups); for % FEP vs control: two injections per day over three weeks, ASARM 1.34 and 4.00 mg/kg/day
Method: Four groups of 7 mice were injected subcutaneously twice a day for three weeks. The first group received vehicle only as a control, the second group received etidronate at 60 mg/kg/day, the third group received ASARM peptide at 1.3 mg/kg/day (“low ASARM”), and the fourth group received ASARM peptide at 4 mg/kg/day (“high ASARM”). Calcein/tetracycline was administered to the animals 4 days and 2 days before the end of the protocol for visualization purposes.
(§1) FIGS. 14a and 14b show the Fractional Excretion of Phosphate (FEP) in two different experiments. In the experiment shown in FIG. 14a, each of three groups of mice was treated with one injection per day, over two weeks, of either: (a) vehicle alone, (b) etidronate (10 mg/kg/day), or (c) ASARM peptide (2 mg/kg/day). In the experiment show in FIG. 14b, each of four groups of mice was treated with two injections per day, over three weeks, of either: (a) vehicle alone, (b) etidronate (60 mg/kg/day), (c) ASARM (1.34 mg/kg/day; “ASARM-low”), or (d) ASARM (4.00 mg/kg/day; “ASARM-high”).

[3] = test system: mice; test: Example III: subcutaneous injection once a day for 12 days, mineralization and phosphate handling; assay type: in vivo; conditions: ASARM peptide 2 mg/kg/day; for Phosphate Excretion Index (PEI) / increase in urinary calcium levels compared to the control / inhibition in tooth mineralization / inhibition of mineralization in femur / inhibition of mineralization in tibia/femur / mineralization of calvariae and long bones / renal phosphorous clearance vs vehicle / serum calcium vs control / serum phosphate / tubular reabsorption of phosphate vs vehicle / urinary phosphate excreted in a 24-hour period vs control / urine creatinine / urine phosphate / Fractional Excretion of Phosphate (FEP) vs vehicle / inhibition of mineralization of calvariae: etidronate 10 mg/kg/day; for Fractional Excretion of Phosphate (FEP) vs vehicle / inhibition of mineralization of calvariae: s.c. once a day 12 days; for inhibition of mineralization of calvariae: calcein
Method: as §1
Three groups of 5 mice each received a subcutaneous injection once a day for 12 days. […] Calcein was given at 20 mg/kg/day on days 3, 5, 8, and 10 to allow visualization. The first group of mice were given an injection of vehicle only. The second group of mice were given etidronate at 10 mg/kg/day. The third group of mice were given ASARM peptide at 2 mg/kg/day.

[4] = molecular target: T1, MEPE-PHEX interaction (Homo sapiens, UniProt P78562); test: Surface plasmon resonance, peptide solution competition of secPHEX-MEPE binding; conditions: peptide pre-mixed with secPHEX, MEPE-RGD up to 85 μM
T1 construct: to generate a soluble, secreted form of PHEX; made in house; host or cells: secPHEX: mammalian cells (gift, University of Montreal); MEPE: S. frugiperda insect cells
T1 sequence (P78562 46-749 limits assumed): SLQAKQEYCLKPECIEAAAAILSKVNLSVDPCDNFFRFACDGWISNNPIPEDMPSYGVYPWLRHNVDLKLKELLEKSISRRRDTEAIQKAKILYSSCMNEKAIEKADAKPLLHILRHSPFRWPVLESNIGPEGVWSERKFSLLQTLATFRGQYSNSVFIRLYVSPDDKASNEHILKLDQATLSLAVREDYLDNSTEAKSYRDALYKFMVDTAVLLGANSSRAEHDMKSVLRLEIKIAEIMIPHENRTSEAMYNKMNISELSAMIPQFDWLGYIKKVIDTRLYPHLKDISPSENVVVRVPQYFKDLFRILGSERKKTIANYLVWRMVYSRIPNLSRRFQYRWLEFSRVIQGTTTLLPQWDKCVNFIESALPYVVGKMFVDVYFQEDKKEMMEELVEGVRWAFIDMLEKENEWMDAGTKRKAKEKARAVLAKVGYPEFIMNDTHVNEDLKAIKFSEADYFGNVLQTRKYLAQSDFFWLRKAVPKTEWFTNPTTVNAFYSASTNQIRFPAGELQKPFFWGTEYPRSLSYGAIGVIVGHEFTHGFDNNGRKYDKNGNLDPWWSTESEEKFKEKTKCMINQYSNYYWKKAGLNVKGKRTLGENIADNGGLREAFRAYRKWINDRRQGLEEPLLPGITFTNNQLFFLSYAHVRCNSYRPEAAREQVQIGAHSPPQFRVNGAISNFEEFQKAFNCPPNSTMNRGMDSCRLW
Description: Surface Plasmon Resonance: Synthetic peptides & competitive PHEX-MEPE binding studies. For these experiments CM-5 chips containing flow-cells immobilized with MEPE, PHEX and IgG ligands at 6000 RU were used. Just prior to SPR injection, stock solution of specific-peptide (as defined for each experiment; see Table 1), and dissolved in analyte buffer (HBS-P—Zn) […] The following equation was used to compute KDapp values: RU=Bmax/inhib×(peptide(μM))/KDapp+(peptide(μM)). The Bmax/inh value represents the maximal percentage inhibition change in RU (i.e., PHEX-MEPE binding) relative to the “non-peptide” control (0% inhibition of binding), using a constant analyte flow-solution of secPHEX of 250 nM against immobilized MEPE ligand at 6000 RU. […] The control MEPE-RGD peptide had no effect on MEPE-PHEX interactions.

[5] = PO4-ASARM-peptide 2 mg/kg/day, etidronate 10 mg/kg/day

Row | Compound | serum calcium vs vehicle ([2]; ASARM 1.3 and 4 mg/kg/day) | serum alkaline phosphatase vs vehicle [2] | increase in urinary calcium levels compared to the control [3] [%] | inhibition in tooth mineralization [3] [%] | inhibition of mineralization in femur [3] [%] | inhibition of mineralization in tibia/femur [3] [%] | mineralization of calvariae and long bones [3] | serum calcium vs control [3] | tubular reabsorption of phosphate vs vehicle [3] | urinary phosphate excreted in a 24-hour period vs control [3] | urine creatinine [3] | urine phosphate [3] | Fractional Excretion of Phosphate (FEP) vs vehicle [3] | inhibition of mineralization of calvariae [3] [%] | also measured
1 | CC(O)(P(=O)(O)O)P(=O)(O)O [etidronate, reference compound] | lower serum calcium levels | significantly higher levels | 75.9 | 53.2 | 15.8 | 19.2 | greatly inhibited | slightly higher level | higher | far less phosphate | significant elevation; also recorded: significantly elevated | induced hypophosphaturia | significantly lower | 48.4 | increase of osteoid layer thickness relative to vehicle [1, 5]: 2.35 fold; percentage quenching of calvarial calcein fluorescence relative to vehicle [1, 5]: 48% and 48.4%; calvariae calcein fluorescence ([1]; PO4-ASARM-peptide 2 mg/kg/day, etidronate 10 mg/kg/day, s.c. 12 days, vehicle 1100.5): 417.7 fluorescent intensity units; calvarial osteoid relative thickness (Sanderson staining) ([1]; PO4-ASARM-peptide 2 mg/kg/day, etidronate 10 mg/kg/day, vehicle 2.3): 5.4; lamellar calcein fluorescent layers in calvarial cross-sections ([1]; four layers visible in vehicle group): complete absence; serum phosphate ([2]; etidronate 60 mg/kg/day s.c. twice a day): 10.04 mg/dL; Phosphate Excretion Index (PEI) [3]: lower PEI; renal phosphorous clearance vs vehicle [3]: significantly less phosphate clearance; serum phosphate [3]: induce hyperphosphatemia
2 | ASARM peptide: ASARM peptide injected subcutaneously in Examples II and III; sequence and phosphorylation not stated; data resemble PO4-ASARM-peptide of Example VI (RDDSSESSDSGSSSESDGD) | lower serum calcium levels | levels similar to that of the vehicle; also recorded: levels similar to that of the control | 56.3 | 35.3 | 44.6 | 24.4 | mineralization was inhibited | did not show a significantly elevated level | higher | far less phosphate | significant elevation; also recorded: significantly elevated | induced hypophosphaturia | significantly lower; also recorded: decreased | 62.0 | urinary phosphate excretion over 24 hours vs etidronate and control groups ([2]; ASARM 1.3 and 4 mg/kg/day): significantly higher; serum phosphate ([2]; ASARM high, 4 mg/kg/day s.c. twice a day): 10.01 mg/dL; serum phosphate ([2]; ASARM low, 1.3 mg/kg/day s.c. twice a day): 10.60 mg/dL; % FEP vs control [2]: increase in FEP; % FEP vs control ([2]; listed as ASARM): much higher % FEP levels; serum alkaline phosphatase vs etidronate or vehicle groups [3]: lower levels; Phosphate Excretion Index (PEI) ([3]; listed as ASARM): much lower PEI; mineralization of calvariae and long bones ([3]; listed as ASARM): greatly inhibited; renal phosphorous clearance vs vehicle ([3]; listed as ASARM): significantly less phosphate clearance; serum phosphate ([3]; listed as ASARM): induced hyperphosphatemia; urinary phosphate excreted in a 24-hour period vs control ([3]; listed as ASARM): far less; urine phosphate ([3]; listed as ASARM): hypophosphaturia; % FEP vs control ([3]; one injection per day over two weeks): significantly lower % FEP; also recorded: decrease in FEP
3 | GSGYTDLQERGDNDISPFSGDGQPF (Homo sapien) [MEPE-RGD, 15, negative control, reference compound] | – | – | – | – | – | – | – | – | – | – | – | – | – | – | inhibition of MEPE-PHEX interaction [4]: did not competitively inhibit; also recorded: no effect; inhibition of MEPE-PHEX interaction ([4]; listed as MEPE-RGD-peptide): no inhibition
